Measurements: US8877707B2, “Inhibitors of HCV NS5A” (Presidio Pharmaceuticals, Inc., priority 2010, dated 2014)

test system: HCV genotype 1b replicon in Huh 7 cells; experiment: HCV replicon assay (1b_Huh-Luc/Neo-ET cell line, luciferase readout); assay type: cell-based; settings: Hepatitis C virus, Huh-7; HCV 1b replicon; read-out: Inhibition of HCV genotype 1b
Summary of the method: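 Huh 7 cells carrying a bicistronic genotype 1b luciferase replicon were treated with compound in triplicate the day after plating and incubated 72 h. Luciferase activity expressed as % of untreated control; EC50 from a four-parameter logistic fit, repeated several times.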

Row | SMILES | EC50 [nM]
1 | COC(=O)N[C@H](C(=O)N1CCC[C@H]1CNC(=O)c1cnc2cc(-c3ccc(-c4cnc([C@@H]5CCCN5C(=O)[C@@H](NC(=O)OC)C(C)C)[nH]4)cc3)ccc2c1)C(C)C [compound 552] | 1 to 9.9
2 | COC(=O)N[C@@H](C(=O)N1CCC[C@H]1CNC(=O)c1cnc2cc(-c3ccc(-c4cnc([C@@H]5CCCN5C(=O)[C@H](NC(=O)OC)c5ccccc5)[nH]4)cc3)ccc2c1)c1ccccc1 [compound 553] | < 1
3 | COC(=O)N[C@H](C(=O)N1CCC[C@H]1CNC(=O)c1cnc2cc(-c3ccc4nc([C@@H]5CCCN5C(=O)[C@@H](NC(=O)OC)C(C)C)[nH]c4c3)ccc2c1)C(C)C [compound 554] | 1 to 9.9
4 | COC(=O)N[C@@H](C)C(=O)N1CCC[C@H]1C(=O)N[C@@H](C)c1ccc(-c2ccc3cc(-c4cnc([C@@H]5CCCN5C(=O)[C@H](C)NC(=O)OC)[nH]4)ccc3c2)cc1 [compound 556] | 10 to 999
5 | COC(=O)N[C@H](C(=O)N1CCC[C@H]1C(=O)N[C@@H](C)c1ccc(-c2ccc3cc(-c4cnc([C@@H]5CCCN5C(=O)[C@@H](NC(=O)OC)C(C)C)[nH]4)ccc3c2)cc1)C(C)C [compound 557] | < 1
6 | COC(=O)N[C@H](C(=O)N1CCC[C@H]1C(=O)N[C@@H](C)c1ccc(-c2ccc3cc(-c4cnc([C@@H]5CCCN5C(=O)[C@@H](NC(=O)OC)[C@@H](C)OC)[nH]4)ccc3c2)cc1)[C@@H](C)OC [compound 558] | < 1
7 | COC(=O)N[C@H](C(=O)N1CCC[C@H]1C(=O)N[C@@H](C)c1ccc(-c2ccc3cc(-c4cnc([C@@H]5CCCN5C(=O)[C@@H](NC(=O)OC)C5CCOCC5)[nH]4)ccc3c2)cc1)C1CCOCC1 [compound 559] | < 1
8 | COC(=O)N[C@@H](C)C(=O)N1CCC[C@H]1C(=O)N[C@H](C)c1ccc(-c2ccc3cc(-c4cnc([C@@H]5CCCN5C(=O)[C@H](C)NC(=O)OC)[nH]4)ccc3c2)cc1 [compound 560] | 10 to 999
9 | COC(=O)N[C@H](C(=O)N1CCC[C@H]1C(=O)N[C@H](C)c1ccc(-c2ccc3cc(-c4cnc([C@@H]5CCCN5C(=O)[C@@H](NC(=O)OC)C(C)C)[nH]4)ccc3c2)cc1)C(C)C [compound 561] | 10 to 999
10 | COC(=O)N[C@H](C(=O)N1CCC[C@H]1C(=O)N[C@H](C)c1ccc(-c2ccc3cc(-c4cnc([C@@H]5CCCN5C(=O)[C@@H](NC(=O)OC)[C@@H](C)OC)[nH]4)ccc3c2)cc1)[C@@H](C)OC [compound 562] | 10 to 999
11 | COC(=O)N[C@H](C(=O)N1CCC[C@H]1C(=O)N[C@H](C)c1ccc(-c2ccc3cc(-c4cnc([C@@H]5CCCN5C(=O)[C@@H](NC(=O)OC)C5CCOCC5)[nH]4)ccc3c2)cc1)C1CCOCC1 [compound 563] | 1 to 9.9
12 | COC(=O)N[C@@H](C)C(=O)N1CCC[C@H]1CNC(=O)c1ccc(-c2ccc3cc(-c4cnc([C@@H]5CCCN5C(=O)[C@H](C)NC(=O)OC)[nH]4)ccc3c2)cc1 [compound 564] | 10 to 999
13 | COC(=O)N[C@H](C(=O)N1CCC[C@H]1CNC(=O)c1ccc(-c2ccc3cc(-c4cnc([C@@H]5CCCN5C(=O)[C@@H](NC(=O)OC)C(C)C)[nH]4)ccc3c2)cc1)C(C)C [compound 565] | < 1
14 | COC(=O)N[C@@H](C)C(=O)N1CCC[C@H]1C(=O)NCc1ccc(-c2ccc3cc(-c4cnc([C@@H]5CCCN5C(=O)[C@H](C)NC(=O)OC)[nH]4)ccc3c2)cc1 [compound 566] | 10 to 999
15 | COC(=O)N[C@H](C(=O)N1CCC[C@H]1C(=O)NCc1ccc(-c2ccc3cc(-c4cnc([C@@H]5CCCN5C(=O)[C@@H](NC(=O)OC)C(C)C)[nH]4)ccc3c2)cc1)C(C)C [compound 567] | 10 to 999
16 | COC(=O)N[C@H](C(=O)N1CCC[C@H]1C(=O)NCc1ccc(-c2ccc3cc(-c4cnc([C@@H]5CCCN5C(=O)[C@@H](NC(=O)OC)[C@@H](C)OC)[nH]4)ccc3c2)cc1)[C@@H](C)OC [compound 568] | 10 to 999
17 | COC(=O)N[C@H](C(=O)N1CCC[C@H]1C(=O)NCc1ccc(-c2ccc3cc(-c4cnc([C@@H]5CCCN5C(=O)[C@@H](NC(=O)OC)C5CCOCC5)[nH]4)ccc3c2)cc1)C1CCOCC1 [compound 569] | < 1
